{"source": "paper PMC12312563", "about": "“Structures of Listeria monocytogenes MenD in ThDP-bound and in-crystallo captured intermediate I-bound forms” (Acta Crystallographica Section F: Structural Biology …, 2025)", "key": {"[1]": {"molecular_target": "T1, LmoMenD (2-succinyl-5-enolpyruvyl-6-hydroxy-3-cyclohexene-1-carboxylate synthase, SEPHCHC synthase) (Listeria monocytogenes, UniProt A0A0H3GD77)", "T1 sequence (A0A0H3GD77 1-580)": "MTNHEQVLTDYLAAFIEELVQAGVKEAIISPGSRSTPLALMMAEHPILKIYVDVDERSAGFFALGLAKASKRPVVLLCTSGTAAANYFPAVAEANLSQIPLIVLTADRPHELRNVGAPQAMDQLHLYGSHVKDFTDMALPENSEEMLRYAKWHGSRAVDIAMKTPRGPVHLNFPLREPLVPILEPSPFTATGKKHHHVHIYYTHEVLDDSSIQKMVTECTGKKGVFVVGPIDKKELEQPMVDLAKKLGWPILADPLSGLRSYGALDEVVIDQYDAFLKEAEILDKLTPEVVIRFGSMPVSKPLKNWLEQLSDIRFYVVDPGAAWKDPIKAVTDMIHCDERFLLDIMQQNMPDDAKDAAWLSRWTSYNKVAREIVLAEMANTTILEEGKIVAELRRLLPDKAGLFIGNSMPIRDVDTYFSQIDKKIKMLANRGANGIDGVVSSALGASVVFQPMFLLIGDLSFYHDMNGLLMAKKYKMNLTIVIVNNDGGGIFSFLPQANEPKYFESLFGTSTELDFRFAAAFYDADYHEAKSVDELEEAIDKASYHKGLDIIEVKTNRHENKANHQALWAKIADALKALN", "design": "gene menD"}, "[2]": {"molecular_target": "T1, LmoMenD (2-succinyl-5-enolpyruvyl-6-hydroxy-3-cyclohexene-1-carboxylate synthase, SEPHCHC synthase)", "test": "UV/Vis assay of isochorismate consumption; […] decrease of activity at […]", "assay_type": "biochemical", "design": "gene menD; full-length LmoMenD, strain 10403s, tag removed by TEV cleavage"}, "[3]": {"molecular_target": "the molecule itself", "test": "crystal structure; LmoMenD with ThDP and Mg2+ (PDB 9e9b) or with intermediate I after a 2-oxoglutarate soak (PDB 9mnn); space group P6(4)22, one molecule in the asymmetric unit, tetramer by crystallographic symmetry; PISA analysis of assemblies"}}, "data": [{"molecule": "O=C(O)CCC(=O)C(=O)O", "note": "[2-oxoglutarate]", "values": [{"measurement": "UV/Vis enzyme kinetics (Km, value in supplement); turned over in crystallo to in", "setting": "[1]", "value": "the Km values for ThDP, 2-oxoglutarate and isochorismate and kcat were determined"}]}, {"molecule": "O=C(O)c1cc(O)c2ccccc2c1O", "note": "[DHNA, 1,4-dihydroxy-2-naphthoic acid]", "values": [{"measurement": "inhibition at 12.5 µM", "setting": "[2]", "value": 34, "unit": "%"}]}, {"molecule": "Listeria monocytogenes MenD (2-succinyl-5-enolpyruvyl-6-hydroxy-3-cyclohexene-1-carboxylate (SEPHCHC) synthase) (enzyme, Listeria monocytogenes (strain 10403s), MenD, Listeria monocytogenes strain 10403s, menD gene cloned from genomic DNA with printed primers that run from the start to the stop codon; Untagged protein after rTEV cleavage; The forward primer reads ATG GTG ACA..., so the MV at the start may hold one residue more than the natural protein (surmised from the residue numbering); also called LmoMenD; source: E. coli BL21 (DE3), purified …) GAMVTNHEQVLTDYLAAFIEELVQAGVKEAIISPGSRSTPLALMMAEHPILKIYVDVDERSAGFFALGLAKASKRPVVLLCTSGTAAANYFPAVAEANLSQIPLIVLTADRPHELRNVGAPQAMDQLHLYGSHVKDFTDMALPENSEEMLRYAKWHGSRAVDIAMKTPRGPVHLNFPLREPLVPILEPSPFTATGKKHHHVHIYYTHEVLDDSSIQKMVTECTGKKGVFVVGPIDKKELEQPMVDLAKKLGWPILADPLSGLRSYGALDEVVIDQYDAFLKEAEILDKLTPEVVIRFGSMPVSKPLKNWLEQLSDIRFYVVDPGAAWKDPIKAVTDMIHCDERFLLDIMQQNMPDDAKDAAWLSRWTSYNKVAREIVLAEMANTTILEEGKIVAELRRLLPDKAGLFIGNSMPIRDVDTYFSQIDKKIKMLANRGANGIDGVVSSALGASVVFQPMFLLIGDLSFYHDMNGLLMAKKYKMNLTIVIVNNDGGGIFSFLPQANEPKYFESLFGTSTELDFRFAAAFYDADYHEAKSVDELEEAIDKASYHKGLDIIEVKTNRHENKANHQALWAKIADALKALN", "values": [{"measurement": "stoichiometry N", "setting": "[3]", "value": 4}]}]}
